{"source": "patent US20240352402A1", "about": "“ENGINEERED BACTERIA FOR BIOSYNTHESIS OF PEPTIDE-BASED QUORUM SENSING INHIBITORS” (Wisconsin Alumni Research Foundation, priority 2023, published 2024)", "system": "S. aureus agr quorum sensing system (agr specificity groups I, II, III and IV)", "assay": "Staphylococcus aureus agr reporter (antagonism) assay with pDB59 YFP reporter strains", "assay_type": "cell-based", "conditions": "high concentrations, WT supernatant as vehicle control", "description": "Supernatant samples were lyophilized in a FreeZone Freeze Dryer (Labconco). Fluorescence (EX 500 nm/EM 540 nm) and OD600 were read on a Synergy™ 2 plater reader (BioTek). Data was analyzed using Prism 9 software (GraphPad by Dotmatics).\nIn both P. megaterium and B. subtilis strains produced in Example 1, AIP production was induced by diluting overnight cultures 1:100 in LB containing 1% xylose. After 8 hours the cultures were centrifuged, and the supernatant was purified with a 0.22 μm filter. The supernatant was then lyophilized and reconstituted in sterile milli-Q water at 10× the original concentration.\nGroups I-IV S. aureus strains containing the pDB59 plasmid were used to conduct agr antagonism assays. Assays were conducted as previously described,^1 with the following adjustments: 10×WT P. megaterium or B. subtilis supernatant was used as a vehicle control instead of DMSO and 20 μl of sample/vehicle control and 180 μl of 1:50 overnight S. aureus in brain heart infusion (BHI) growth medium was added to each well for inducible strains P. megaterium (FIG. 2) and B. subtilis (FIG. 3) from Example 1 and constitutive strain B. subtilis (FIG. 5) from Example 2.", "data": [{"substance": "AIP-III D4A", "values": [{"measurement": "inhibition of agr activity in reporter assay", "setting": "lyophilized B. subtilis supernatant (10x), n=9, FIG. 3", "value": "inhibit agr"}, {"measurement": "inhibition of agr activity in reporter assay", "setting": "lyophilized P. megaterium supernatant (10x), n=3, FIG. 2", "value": "inhibit agr"}]}]}
